Consider five compounds from patent US12697322B2, “Methods of treating cancer using androgen receptor antagonists” (Garvan Institute of Medical Research, priority 2019, dated 2026).

Common to all, as to assay type: cell-based, human
Data set [1] deals with CD44^Hi cells isolated from HMLER and HCC38 cell lines. Kind of data set: Cell proliferation assay (CyQuant). The following applies: for CD44^Hi proliferation: CD44^Hi cells from HMLER and HCC38. The protocol:
HMLER, HCC38 and MDA-MB-231 cells were plated in triplicate in 96-well plates at the densities outlined in Table 3. After 24 hours, cells were treated with various chemotherapeutic agents at the following doses: Doxorubicin (0 nM, 25 nM, 50 nM, 75 nM, 100 nM, 200 nM), Cisplatin (0 μg/ml, 0.1 μg/ml, 0.5 μg/ml, 1 μg/ml, 2 μg/ml, 5 μg/ml) or Docetaxel (0 nM, 1 nM, 5 nM, 10 nM, 25 nM, 50 nM); Androgen receptor agonists: Enobosarm (0 nM, 25 nM, 50 nM, 100 nM, 200 nM, 400 nM) or DHT (0 nM, 1 nM, 5 nM, 10 nM, 20 nM, 40 nM); or AR antagonist: Seviteronel (0 nM, 0.5 nM, 2 nM, 10 nM, 20 nM, 50 nM). Assays were harvested daily for five days by removing culture media and storing at −80′C. Cell proliferation was determined using CyQuant Cell Proliferation assay kit according to manufacturer's protocol (ThermoFisher Scientific) and fluorescence was measured at ~480 nm excitation and ~520 nm emission using a microplate reader.

Data set [2] has as its system HMLER-CD44Hi and HCC38 CD44Hi cells. Briefly: Tumoursphere formation assay. To be noted: CD44^Hi cells, counted at Day 14. The protocol: Single cell suspensions were plated in ultra-low attachment 96-well plates (Corning #CLS3474, New York, USA). HMLE-CD44^Hi cells were plated at a density of 50 cells/well in 100 μl of BPA-free MEGM media (Lonza # CC-3150, Basal, Switzerland). HCC38-CD44^Hi cells were plated at a density of 100 cells/well in serum-free RPMI with 1% penicillin/streptomycin, 20 ng/ml EGF, 20 ng/ml FGFb, 4 μg/mL heparin, 1×B27 and 1% methyl cellulose (Sigma). Media was replenished every five days by adding 50 μL of the appropriate tumoursphere media to each well. Tumourspheres were counted at Day 14. Results are presented as tumoursphere formation efficiency (number of spheres per well divided by the number of cells seeded per well). At Day 14, mammospheres were collected using a 40 μm cell strainer, washed with PBS and dissociated using trypsin-EDTA solution, and stained with anti-CD44PECy7 and anti-CD104PE as per standard FACS staining protocol.

Data set [3] has as its system HMLER and HCC38 CD44^Lo cells. Briefly: Flow cytometry of chemotherapy-induced CD44^Lo to CD44^Hi plasticity. The source says:
Cells were stained and fixed as with DHT treatment.
Using purified populations of CD44^Lo cells (with no CD44^Hi fraction) the effects of chemotherapy on cellular plasticity was investigated using flow cytometry.

In a further data set the test system is AR full length (100 kDa). Kind of data set: AR siRNA knockdown, western blot. The following applies: HCC38 CD44^Hi cells, 20 nM siRNA, 72 h post transfection. As to the method:
Protein was extracted from cell lysates using RIPA lysis buffer (sc-24948) or specific lysis buffer for phospho-proteins detection (20 mM Tris-HC1 pH 7.6, 137 mM NaCl, 1% NP40, 0.5% Na-deoxycholate, 10 mM NaF, 20 mM β-glycerophosphate, 1 mM Na-orthovanadate and 1:200 complete protease inhibitors). 25-30 μg of proteins were run in a 4-12% Bis-tris gel (Invitrogen). Proteins were transferred to a PVDF membrane (BioRad). After blocking with 5% BSA (w/v) and 0.05% (v/v) Tween-20 in PBS, the membranes were incubated overnight with the indicated antibodies, washed with PBS 0.05% (v/v) Tween-20 and incubated with the corresponding horseradish peroxidase-conjugated secondary antibodies (Cell Signaling; Dil 1/5000, Table 3) for 30 min. Blots were developed using Western Lightning Plus ECL (PerkinElmer) and FusionFx7 Digital Imager, Band intensities were quantified using Fiji (Schindelin et al., 2012) and results were represented relative to controls.
siRNAs targeting exon 1 and 7 of AR full length were designed in-house (SEQ ID NOs: 6 and 7). HCC38 CD44^Hi cells (10^5/well) were seeded in M6 plate wells 24 hours prior to siRNA transfection. 20 nM of siRNA CT, siRNA AR Ex1 or AR Ex7 were delivered using lipofectamine 3000 (Thermofisher) as per manufacturer instructions.

“Also recorded” adds a separate entry of the source.

For the compound `C[C@]12CC[C@H](O)CC1=CC[C@@H]1[C@@H]2CC[C@]2(C)C(c3cccnc3)=CC[C@@H]12` [Abiraterone, (3p)-17-(pyridin-3-yl) androsta-5, 16-dien-3-ol], the “CD44^Hi proliferation” value in data set [1] is “decreased CD44Hi proliferation; also recorded: decrease CD44^Hi proliferation”. The “tumoursphere formation (tumoursphere-forming efficiency)” value in data set [2] is “decrease”.
On to `COc1cccc2c1C(=O)c1c(O)c3c(c(O)c1C2=O)C[C@@](O)(C(=O)CO)C[C@@H]3O[C@H]1C[C@H](N)[C@H](O)[C@H](C)O1` [Doxorubicin], for which the “induction of CD44^Lo-to-CD44^Hi transition by chemotherapy” value in data set [3] (one dose of chemotherapy for 72 hours) is on record as “induce CD44^Lo cells to transition to the CD44^Hi state”.
As to `CNC(=O)c1ccc(N2C(=S)N(c3ccc(C#N)c(C(F)(F)F)c3)C(=O)C2(C)C)cc1F` [Enzalutamide, 4-{3-[4-cyano-3-(trifluoromethyl)phenyl]-5,5-dimethyl-4-oxo-2-sulfanylideneimidazolidin-1-yl}-2-fluoro-iV-methylbenzamide], the “CD44^Hi proliferation” value in data set [1] was “decreased CD44Hi proliferation; also recorded: decrease CD44^Hi proliferation”. Moreover, the “treatment required to equal the effect of Seviteronel” value in data set [1] (CD44^Hi proliferation and tumoursphere formation) is “daily treatment of Enzalutamide was required to equal one dose of Seviteronel”. In addition, the “blocking of chemotherapy-induced CD44^Lo-to-CD44^Hi transitions” value in data set [3] (with chemotherapy simultaneously for 72 hours, Seviteronel 10 μM) is on record as “not as effective as Seviteronel”.
Take “AR Ex7: in-house siRNA targeting AR exon 7, SEQ ID NO: 7 (GGAACUCGAUCGUAUCAUUUU; listed as RNA, chemistry not given here)”: the “expression of AR full length” value in the data set on AR full length (100 kDa) is given as “strong reduction”.
On the same count and under the same terms, to “siRNA AR Ex1: in-house siRNA against AR full length, SEQ ID NO: 6 (GCUUCUGGGUGUCACUAUGUU; listed as RNA, chemistry not given here)” belongs “strong reduction”.
